Measurements from patent publication US20240391965A1, “STAPLED ANTIMICROBIAL PEPTIDES (STAMPS) AND USES THEREOF” (Lytica Therapeutics, Inc., priority 2021, published 2024).
In brackets after ≈: the same amount, converted by molar mass. Starred links: 1 amine or outer side, 2 acyl side, 3 side chain; linkers in the order of their positions; H or OH if unused. Positions of bridges follow the written chain, without caps; N, C: chain ends. Residues, ends and D or L forms follow the SMILES beside them. mXylylene = c1cc(C[*:1])cc(C[*:2])c1; pXylylene = c1cc(C[*:2])ccc1C[*:1]; X1 = C(=CC[*:2])C[*:1]

Columns and labels:
[1] = 90 minute cytotoxicity assay (LDH release), renal toxicity; format: cell-based; details: 90 minutes of incubation, LDH release; read-out: Inhibitory Concentration at 50% Cytotoxicity (IC50) Human Renal Proximal Tubule Epithelial Cells (RPTEC)
Summary of the method: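 Released lactate dehydrogenase, read as absorbance at 490 nm after 10 min with assay reagent, serves as read-out. Renal proximal tubule epithelial cells received peptide serial dilutions or vehicle for 90 min at 37° C after overnight plating.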

[2] = 48 hours cytotoxicity assay (CellTiter-Glo), liver toxicity; format: cell-based, human; details: 48 hours of incubation, CellTiter-Glo; read-out: Inhibitory Concentration at 50% Cytotoxicity (IC50) Human Liver Cells (HepG2)
Summary of the method: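 Viability from CellTiter-Glo luminescence after StAMP dilution series or vehicle acted on HepG2 cells for 48 h at 37 °C. Cells were grown in EMEM plus 10% FBS and given 4 h to attach before dosing.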

[3] = test system: Escherichia coli (E. coli); format: cell-based; details: microbroth dilution, 20-24 hours at 37° C.
Summary of the method: (§1)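 Visual growth read-out after 20-24 h at 37 °C defines the MIC. Inoculum: 5×10^5 CFU/ml of regrown (3-4 h) bacteria in MHB or MHB II, against serial peptide dilutions, following an adapted CLSI protocol.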

[4] = test system: Pseudomonas aeruginosa (P. aeruginosa); format: cell-based; details: microbroth dilution, 20-24 hours at 37° C.
Summary of the method: as §1

[5] = test system: Klebsiella pneumoniae (K. pneumoniae); format: cell-based; details: microbroth dilution, 20-24 hours at 37° C.
Summary of the method: as §1

[6] = test system: Staphylococcus aureus (S. aureus); format: cell-based; details: microbroth dilution, 20-24 hours at 37° C.
Summary of the method: as §1

[7] = test system: Acinetobacter baumannii (A. baumannii); format: cell-based; details: microbroth dilution, 20-24 hours at 37° C.
Summary of the method: as §1

Structure (SMILES) | IC50 [1] | IC50 [2] | Minimum Inhibitory Concentration (MIC) E. coli [3] | Minimum Inhibitory Concentration (MIC) P. aeruginosa [4] | Minimum Inhibitory Concentration (MIC) K. pneumoniae [5] | Minimum Inhibitory Concentration (MIC) S. aureus [6] | Minimum Inhibitory Concentration (MIC) A. baumannii [7]
CC[C@H](C)[C@H](NC(=O)CN)C(=O)N[C@@H](Cc1ccccc1)C(=O)N[C@@H](CO)C(=O)N[C@@H](CCCCN)C(=O)N[C@@H](CC(C)C)C(=O)N[C@@H](C)C(=O)N[C@H]1CSCc2ccc(cc2)CSC[C@@H](C(=O)N[C@@H](CC(N)=O)C(=O)N[C@@H](CC(C)C)C(=O)N[C@@H](CC(C)C)C(=O)N[C@H](C(=O)N[C@@H](CO)C(=O)NCC(=O)N[C@@H](CC(C)C)C(=O)N[C@@H](CCCCN)C(=O)NCC(N)=O)[C@@H](C)CC)NC(=O)[C@H]([C@@H](C)CC)NC(=O)[C@H](CCCCN)NC(=O)[C@H](CCCCN)NC1=O [compound 11] (H-GIFSKLACKKICNLLISGLKG-NH2; linker 8-12 via pXylylene) | 16 mg/L (≈ 6.93 µM) | 23 mg/L (≈ 9.97 µM) | 4 mg/L | 8 mg/L | 8 mg/L | 32 mg/L | 4 mg/L
CC[C@H](C)[C@H](NC(=O)CN)C(=O)N[C@@H](Cc1ccccc1)C(=O)N[C@@H](CO)C(=O)N[C@@H](CCCCN)C(=O)N[C@@H](CC(C)C)C(=O)N[C@@H](C)C(=O)N[C@H]1CSCC=CCSC[C@@H](C(=O)N[C@@H](CC(N)=O)C(=O)N[C@@H](CC(C)C)C(=O)N[C@@H](CC(C)C)C(=O)N[C@H](C(=O)N[C@@H](CO)C(=O)NCC(=O)N[C@@H](CC(C)C)C(=O)N[C@@H](CCCCN)C(=O)NCC(N)=O)[C@@H](C)CC)NC(=O)[C@H]([C@@H](C)CC)NC(=O)[C@H](CCCCN)NC(=O)[C@H](CCCCN)NC1=O [compound 12] (H-GIFSKLACKKICNLLISGLKG-NH2; linker 8-12 via X1) | 70 mg/L (≈ 31 µM) | 50 mg/L (≈ 22.1 µM) | 4 mg/L | 16 mg/L | 16 mg/L | >64 mg/L | 4 mg/L
CC[C@H](C)[C@H](NC(=O)CN)C(=O)N[C@@H](Cc1ccccc1)C(=O)N[C@@H](CO)C(=O)N[C@@H](CCCCN)C(=O)N[C@@H](CC(C)C)C(=O)N[C@@H](C)C(=O)NCC(=O)N[C@H]1CSCc2ccc(cc2)CSC[C@@H](C(=O)N[C@@H](CC(C)C)C(=O)N[C@@H](CC(C)C)C(=O)N[C@H](C(=O)N[C@@H](CO)C(=O)NCC(=O)N[C@@H](CC(C)C)C(=O)N[C@@H](CCCCN)C(=O)NCC(N)=O)[C@@H](C)CC)NC(=O)[C@H](CCCCN)NC(=O)[C@H]([C@@H](C)CC)NC(=O)[C@H](CCCCN)NC1=O [compound 13] (H-GIFSKLAGCKIKCLLISGLKG-NH2; linker 9-13 via pXylylene) | > 200 mg/L | > 200 mg/L | 32 mg/L | 64 mg/L | 64 mg/L | >64 mg/L | 32 mg/L
CC[C@H](C)[C@H](NC(=O)CN)C(=O)N[C@@H](Cc1ccccc1)C(=O)N[C@@H](CO)C(=O)N[C@@H](CCCCN)C(=O)N[C@@H](CC(C)C)C(=O)N[C@@H](C)C(=O)NCC(=O)N[C@@H](CCCCN)C(=O)N[C@H]1CSCc2cccc(c2)CSC[C@@H](C(=O)N[C@@H](CC(C)C)C(=O)N[C@H](C(=O)N[C@@H](CO)C(=O)NCC(=O)N[C@@H](CC(C)C)C(=O)N[C@@H](CCCCN)C(=O)NCC(N)=O)[C@@H](C)CC)NC(=O)[C@H](CC(N)=O)NC(=O)[C@H](CCCCN)NC(=O)[C@H]([C@@H](C)CC)NC1=O [compound 14] (H-GIFSKLAGKCIKNCLISGLKG-NH2; linker 10-14 via mXylylene) | 41 mg/L (≈ 18.2 µM) | 49 mg/L (≈ 21.8 µM) | 4 mg/L | 16 mg/L | 16 mg/L | 32 mg/L | 8 mg/L
CC[C@H](C)[C@H](NC(=O)CN)C(=O)N[C@@H](Cc1ccccc1)C(=O)N[C@@H](CO)C(=O)N[C@@H](CCCCN)C(=O)N[C@@H](CC(C)C)C(=O)N[C@@H](C)C(=O)NCC(=O)N[C@@H](CCCCN)C(=O)N[C@H]1CSCc2ccc(cc2)CSC[C@@H](C(=O)N[C@@H](CC(C)C)C(=O)N[C@H](C(=O)N[C@@H](CO)C(=O)NCC(=O)N[C@@H](CC(C)C)C(=O)N[C@@H](CCCCN)C(=O)NCC(N)=O)[C@@H](C)CC)NC(=O)[C@H](CC(N)=O)NC(=O)[C@H](CCCCN)NC(=O)[C@H]([C@@H](C)CC)NC1=O [compound 15] (H-GIFSKLAGKCIKNCLISGLKG-NH2; linker 10-14 via pXylylene) | 82 mg/L (≈ 36.4 µM) | 88 mg/L (≈ 39.1 µM) | 8 mg/L | 32 mg/L | 32 mg/L | >64 mg/L | 16 mg/L
CC[C@H](C)[C@H](NC(=O)CN)C(=O)N[C@@H](Cc1ccccc1)C(=O)N[C@@H](CO)C(=O)N[C@@H](CCCCN)C(=O)N[C@@H](CC(C)C)C(=O)N[C@@H](C)C(=O)NCC(=O)N[C@@H](CCCCN)C(=O)N[C@H]1CSCC=CCSC[C@@H](C(=O)N[C@@H](CC(C)C)C(=O)N[C@H](C(=O)N[C@@H](CO)C(=O)NCC(=O)N[C@@H](CC(C)C)C(=O)N[C@@H](CCCCN)C(=O)NCC(N)=O)[C@@H](C)CC)NC(=O)[C@H](CC(N)=O)NC(=O)[C@H](CCCCN)NC(=O)[C@H]([C@@H](C)CC)NC1=O [compound 16] (H-GIFSKLAGKCIKNCLISGLKG-NH2; linker 10-14 via X1) | > 200 mg/L | > 200 mg/L | 32 mg/L | >64 mg/L | >64 mg/L | >64 mg/L | 64 mg/L
CC[C@H](C)[C@H](NC(=O)CN)C(=O)N[C@@H](Cc1ccccc1)C(=O)N[C@@H](CO)C(=O)N[C@@H](CCCCN)C(=O)N[C@@H](CC(C)C)C(=O)N[C@@H](C)C(=O)NCC(=O)N[C@@H](CCCCN)C(=O)N[C@@H](CCCCN)C(=O)N[C@H]1CSCc2cccc(c2)CSC[C@@H](C(=O)N[C@H](C(=O)N[C@@H](CO)C(=O)NCC(=O)N[C@@H](CC(C)C)C(=O)N[C@@H](CCCCN)C(=O)NCC(N)=O)[C@@H](C)CC)NC(=O)[C@H](CC(C)C)NC(=O)[C@H](CC(N)=O)NC(=O)[C@H](CCCCN)NC1=O [compound 17] (H-GIFSKLAGKKCKNLCISGLKG-NH2; linker 11-15 via mXylylene) | > 200 mg/L | > 200 mg/L | 64 mg/L | >64 mg/L | >64 mg/L | >64 mg/L | >64 mg/L
CC[C@H](C)[C@H](NC(=O)CN)C(=O)N[C@@H](Cc1ccccc1)C(=O)N[C@@H](CO)C(=O)N[C@@H](CCCCN)C(=O)N[C@@H](CC(C)C)C(=O)N[C@@H](C)C(=O)NCC(=O)N[C@@H](CCCCN)C(=O)N[C@@H](CCCCN)C(=O)N[C@H]1CSCc2ccc(cc2)CSC[C@@H](C(=O)N[C@H](C(=O)N[C@@H](CO)C(=O)NCC(=O)N[C@@H](CC(C)C)C(=O)N[C@@H](CCCCN)C(=O)NCC(N)=O)[C@@H](C)CC)NC(=O)[C@H](CC(C)C)NC(=O)[C@H](CC(N)=O)NC(=O)[C@H](CCCCN)NC1=O [compound 18] (H-GIFSKLAGKKCKNLCISGLKG-NH2; linker 11-15 via pXylylene) | > 200 mg/L | > 200 mg/L | >64 mg/L | >64 mg/L | >64 mg/L | >64 mg/L | >64 mg/L
CC[C@H](C)[C@H](NC(=O)CN)C(=O)N[C@@H](Cc1ccccc1)C(=O)N[C@@H](CO)C(=O)N[C@@H](CCCCN)C(=O)N[C@@H](CC(C)C)C(=O)N[C@@H](C)C(=O)NCC(=O)N[C@@H](CCCCN)C(=O)N[C@@H](CCCCN)C(=O)N[C@H]1CSCC=CCSC[C@@H](C(=O)N[C@H](C(=O)N[C@@H](CO)C(=O)NCC(=O)N[C@@H](CC(C)C)C(=O)N[C@@H](CCCCN)C(=O)NCC(N)=O)[C@@H](C)CC)NC(=O)[C@H](CC(C)C)NC(=O)[C@H](CC(N)=O)NC(=O)[C@H](CCCCN)NC1=O [compound 19] (H-GIFSKLAGKKCKNLCISGLKG-NH2; linker 11-15 via X1) | > 200 mg/L | > 200 mg/L | >64 mg/L | >64 mg/L | >64 mg/L | >64 mg/L | >64 mg/L
